Results on one substance are retold here after US20230104658A1, “METHODS OF INCREASING PROGENITOR CELL PRODUCTION” (Janssen Pharmaceutica NV, priority 2021, published 2023).

The subject of one assay is Megakaryocytes. Put plainly: Histology (H&E) megakaryocyte count in sternal bone marrow of healthy mice after single s.c. dose. The format is in vivo. How it is done: (§1) In this study, normal male C57BL/6 mice were subcutaneously injected with RWJ-800088 (TPOm) at 300 μg/kg (Day 0). […]
Further, hematopoietic stem and progenitor cell (HSPC) populations in the femoral marrow were examined by flow cytometry (FIG. 2).

The test system of assay [1] is Myeloid progenitor cells (MPC). Put plainly: Flow cytometry of femoral bone marrow, total count/femur: myeloid progenitor cells (Example 1). The format is in vivo, mice. How it is done:
as §1
(§2) […] After, the cell pellet was resuspended in 1X ACK lysing buffer (Lonza, 10-548E) to lyse red blood cells. The suspension was filtered through 70 μm nylon mesh and collected for further analysis.
(§3) The bone marrow was further processed to isolate single cell populations. Then, the cells from the bone marrow and blood were subjected to flow cytometry to identify various population, including endothelial cells (EC), EPC, arterial EC, sinusoidal EC, lineage-, c-kit+, Sca-1+(LSK), megakaryocyte progenitors, short-term hematopoietic stem cell (ST-HSC), long-term HSC (LT-HSC), mesenchymal stern cell (MSC), LepR+c-mpl+MSC. The portion of blood sample was also subjected to clonogenic assay to validate the EPC population.
(§4) The cells isolated from the bone marrow and peripheral blood were incubated with
(§5) Live/Dead Zombie dye (Biolegend) in phosphate-buffered saline (PBS) at room temperature for 15 minutes. After, primary antibodies were diluted in 2% fetal bovine serum (FBS)-PBS solution and incubated with cells on ice for 30 minutes. Cells were washed with 2% FBS-PBS solution and incubated with secondary antibodies for 30 minutes. Cells were washed again and acquired on Cytek Aurora spectral cytometer. Analysis was done through FlowJo (Tree Star) software.

The next assay deals with LSK. The assay can be described thus: Flow cytometry of femoral bone marrow, total count/femur: LSK cells (Example 1). Format: in vivo, mice. The settings on record: after treatment for 13 days. The protocol:
as §1
(§6) Tibias were flushed and digested with 1 mg/mL collagenase IV (Gibco, 17104019) and 2 mg/mL dispase (Gibco, 17105041) in Hank's balanced salt solution (HB SS) (Gibco, 24020117) for a total of 30 minutes at 37° C. with an inversion at 15 minutes. After, the cell pellet was resuspended in 1X ACK lysing buffer (Lonza, 10-548E) to lyse red blood cells. The suspension was filtered through 70 μm nylon mesh and collected for further analysis.
as §3, §4
(§7) Live/Dead Zombie dye (Biolegend) in phosphate-buffered saline (PBS) at room temperature for 15 minutes. After, primary antibodies were diluted in 2% fetal bovine serum (FBS)-PBS solution and incubated with cells on ice for 30 minutes. […]

The next assay concerns Short-term HSCs. The assay can be described thus: Flow cytometry of femoral bone marrow, total count/femur: short-term HSCs (Example 1). Format: in vivo, mice. To be noted: after treatment for 13 days. The protocol:
as §1, §2, §3, §4, §5

The test system of a further assay is Long-term HSCs. Put plainly: Flow cytometry of femoral bone marrow, total count/femur: long-term HSCs (Example 1). Format: in vivo, mice. To be noted: only by day 13 after treatment. The protocol:
as §1, §2, §3, §4, §5

In assay [2] the test system is Endothelial progenitor cells (EPC). Put plainly: Flow cytometry of femoral bone marrow, total count/femur: endothelial progenitor cells (Example 1). Format: in vivo, mice. The settings on record: days 3 to 13 after 300 μg/kg s.c. The protocol:
as §1, §6, §3, §4, §7

A further assay deals with Endothelial cells (EC). Put plainly: Flow cytometry of femoral bone marrow, total count/femur: CD31+ endothelial cells (Example 1). Format: in vivo, mice. To be noted: days 3 to 13 after 300 μg/kg s.c. The protocol: In this study, normal male C57BL/6 mice were subcutaneously injected with RWJ-800088 (TPOm) at 300 μg/kg (Day 0). At days 3, 7, 10 and 14, the mice were sacrificed to collect the bone marrow and blood samples.
as §2, §3, §4
Live/Dead Zombie dye (Biolegend) in phosphate-buffered saline (PBS) at room temperature for 15 minutes. After, primary antibodies were diluted in 2% fetal bovine serum (FBS)-PBS solution and incubated with cells on ice for 30 minutes. Cells were washed with 2% FBS-PBS solution and incubated with secondary antibodies for 30 minutes. […]

Assay [3] has as its system myeloid progenitor cells (MPCs). The assay can be described thus: Flow cytometry of bone marrow ten days after treatment: MPCs (Example 2). Format: in vivo, mice. To be noted: ten days after 300 μg/kg s.c.; percentage of CD45- cells. The protocol:
(§8) In this study, male C57BL/6 mice (8-10 weeks old) from Jackson Laboratory (Bar Harbor, Me.) were subcutaneously injected with RWJ-800088 (TPOm) at 300 μg/kg or PBS (vehicle). At day 10 after RWJ-800088 injection, the mice were sacrificed to harvest bone marrow and peripheral blood. Another set of groups was intraperitoneally injected with 5 mg/kg of plerixafor (also named AMD3100) from Sigma-Aldrich 1 hour before the sacrifice. The bone marrow was further processed to isolate single cell populations. Then, the cells from bone marrow and blood were subjected to flow cytometry to identify various populations. Bone Marrow Cell Collection
(§9) Tibias were flushed and digested with 1 mg/mL collagenase IV (Gibco, 17104019) and 2 mg/mL dispase (Gibco, 17105041) in Hank's balanced salt solution (HBSS; Gibco, 24020117) for a total of 30 minutes at 37° C. with an inversion at 15 minutes. After, cell pellet was resuspended in lx ACK lysing buffer (Lonza, 10-548E) to lyse red blood cells. The suspension was filtered through 100 μm nylon mesh and collected for further analysis.
(§10) The cells isolated from the bone marrow and peripheral blood were incubated with Live/Dead Zombie dye (Biolegend) in PBS at room temperature for 15 minutes. After, primary antibodies were diluted in 2% FBS-PBS solution and incubated with cells on ice for 30 minutes. […]

In assay [4] the test system is hemopoietic stem cells (HSCs). Put plainly: Flow cytometry of bone marrow ten days after treatment: HSCs (Example 2). The format is in vivo, mice. The settings on record: ten days after 300 μg/kg s.c.; percentage of CD45- cells. The protocol:
as §8, §9, §10

Assay [5] concerns Endothelial progenitor cells (EPCs). The assay can be described thus: Flow cytometry of bone marrow ten days after treatment: EPCs (Example 2). To be noted: 10 days after 300 μg/kg s.c.; percentage of CD45- cells. The format is in vivo, mice. How it is done: as §8, §9, §10

Square brackets hold non-standard residues; d marks the D form. 2Nal = N[C@@H](Cc1ccc2ccccc2c1)C(=O)O; Sar = CNCC(=O)O

As to “methoxypolyethyleneglyco120000-propionyl-L-Isoleucyl-L-Glutamyl-Glycyl-L-Prolyl-L-Threonyl-L-Leucyl-L-Arginyl-L-Glutaminyl-L-2-Naphthylalanyl-L-Leucyl-L-Alanyl-L-Alanyl-L-Arginyl-Sarcosyl-Ne-(methoxypolyethyleneglyco120000-propionyl-L-Isoleucyl-L-Glutamyl-Glycyl-L-Prolyl-L-Threonyl-L-Leucyl-L-Arginyl-L-Glutaminyl-L-2-Naphthylalanyl-L-Leucyl-L-Alanyl-L-Alanyl-L-Arginyl-Sarcosyl-)-Lysinamide ({methoxypolyethyleneglycol 20000‑propionyl}-IEGPTLRQ[2Nal]LAAR[Sar]K-NH2; also: dimer: second identical mPEG20000-propionyl-peptide-Sar arm on C-terminal Lys Ne) [RWJ-800088]”, the “Number of megakaryocytes in sternal marrow” value in the assay with Megakaryocytes (13 days after treatment, 300 μg/kg s.c.) is “dropped down to baseline”. For the same substance, in the assay with Megakaryocytes (days 3 and 6 after 300 μg/kg s.c.), the “Megakaryocytes in sternal marrow relative to naive animals” value is reported as “significant increases”. Further, the “Myeloid progenitor cells (lineage-, c-kit+) in femoral marrow relative to naive” value in assay [1] (day 3 after treatment) is “significant increases”. The “Myeloid progenitor cells (lineage-, c-kit+) in femoral marrow” value in [1] (day 6 after treatment) is on record as “significant decrease”; in [1] (day 13 after treatment), “return to baseline”. Also, the “LSK (lineage-, c-kit+, Sca-1+) population in femoral marrow” value in the assay with LSK is given as “significantly increased”. The “LSK, CD34+ short-term (ST-) HSC population in femoral marrow” value with Short-term HSCs is “significantly increased”. Moreover, the “LSK, CD34-, CD48-, CD150+ long-term (LT-) HSCs in femoral marrow” value in the assay on Long-term HSCs is reported as “significantly increased”. Moreover, in assay [2], the “EPC population in femoral marrow, time course” value is listed as “began increasing on day 3 with a peak on day 6”. For the same substance, the “EC (CD31+) population in femoral marrow, time course” value in the assay with Endothelial cells (EC) was “increased beginning on day 3 and was sustained through day 13”. Also, the “MPC population in the bone marrow compartment” value in assay [3] is reported as “increases”. The “HSC population in the bone marrow compartment” value in assay [4] is “increases”. Further, the “EPC populations in the bone marrow” value in assay [5] is recorded as “significant increase”.
